Test results taken from patent publication US11492335B2, “Aryl or heteroaryl triazolone derivatives or salts thereof, or pharmaceutical compositions comprising the same” (YUHAN CORPORATION, priority 2018, dated 2022).
Where a name gives a salt, the structure may show the parent alone.

How the values were obtained:
Format in all cases: biochemical
[1] = target: T1, recombinant human MAO-A (monoamine oxidase-A) (Homo sapiens, UniProt P21397); experiment: Activity on recombinant human MAO-A, Amplex Red method, 0.5 mM tyramine substrate; details: 0.5 mM tyramine, read-out: Inhibitory Activity (IC50, nM) MAO-A
T1 construct: purchased Sigma-Aldrich
T1 sequence (P21397 1-527): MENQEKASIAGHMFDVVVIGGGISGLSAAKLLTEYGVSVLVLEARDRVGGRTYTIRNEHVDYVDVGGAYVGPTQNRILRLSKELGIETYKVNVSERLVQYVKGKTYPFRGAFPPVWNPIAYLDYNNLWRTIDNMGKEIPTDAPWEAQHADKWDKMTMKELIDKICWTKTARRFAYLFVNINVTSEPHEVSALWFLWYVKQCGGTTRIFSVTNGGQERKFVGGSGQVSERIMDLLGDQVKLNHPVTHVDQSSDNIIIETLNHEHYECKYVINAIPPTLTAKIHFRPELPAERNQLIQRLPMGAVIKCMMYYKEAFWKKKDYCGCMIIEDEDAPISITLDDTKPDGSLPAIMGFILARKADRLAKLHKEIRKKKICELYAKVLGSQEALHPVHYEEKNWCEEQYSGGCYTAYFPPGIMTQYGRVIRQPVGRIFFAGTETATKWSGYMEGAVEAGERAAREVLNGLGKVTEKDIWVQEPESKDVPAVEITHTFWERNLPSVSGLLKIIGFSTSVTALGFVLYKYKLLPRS
Summary of the method: (§1)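 First, serially diluted compounds were incubated with recombinant enzyme in 50 mM sodium phosphate, pH 7.4, for 30 min at 37° C. Next, Amplex Red (200 uM), HRP (1 U/mL) and tyramine (0.5 mM, MAO-A) or benzylamine (1 mM, MAO-B) were added. Then fluorescence was monitored over 1-2 h and IC50 fitted.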

recombinant human VAP-1 = target: T2, recombinant human VAP-1 (Homo sapiens, UniProt Q16853); experiment: Activity on recombinant human VAP-1, Amplex Red HRP-coupled hydrogen peroxide assay, benzylamine substrate; details: recombinant human VAP-1, benzylamine substrate, 30 min preincubation at 37° C.; read-out: Inhibitory Activity (IC50, nM) human VAP-1
T2 construct: purchased R&D systems
T2 sequence (Q16853 1-763): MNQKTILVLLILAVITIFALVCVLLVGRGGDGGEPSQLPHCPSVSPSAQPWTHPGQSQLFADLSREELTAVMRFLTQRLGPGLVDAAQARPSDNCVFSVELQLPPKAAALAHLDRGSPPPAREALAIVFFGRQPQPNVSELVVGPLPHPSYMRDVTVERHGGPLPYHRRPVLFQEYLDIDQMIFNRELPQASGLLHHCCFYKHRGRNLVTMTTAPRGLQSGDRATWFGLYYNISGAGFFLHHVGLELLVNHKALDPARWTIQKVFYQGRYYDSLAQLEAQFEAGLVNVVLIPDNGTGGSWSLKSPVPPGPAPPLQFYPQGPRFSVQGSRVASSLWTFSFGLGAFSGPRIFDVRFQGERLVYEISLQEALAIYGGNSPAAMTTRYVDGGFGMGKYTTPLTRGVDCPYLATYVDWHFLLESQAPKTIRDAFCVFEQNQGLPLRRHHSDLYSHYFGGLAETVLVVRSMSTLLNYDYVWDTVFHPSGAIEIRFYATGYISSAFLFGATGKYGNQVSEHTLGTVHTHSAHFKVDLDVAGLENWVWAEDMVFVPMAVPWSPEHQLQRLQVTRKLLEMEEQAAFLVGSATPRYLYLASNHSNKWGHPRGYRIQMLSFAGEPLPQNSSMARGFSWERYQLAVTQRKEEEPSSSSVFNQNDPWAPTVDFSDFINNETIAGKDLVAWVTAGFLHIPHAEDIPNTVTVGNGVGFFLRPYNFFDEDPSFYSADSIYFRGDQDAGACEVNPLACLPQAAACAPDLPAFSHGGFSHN
Summary of the method: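 H2O2 generation from 1 mM benzylamine was coupled via 1 U/mL HRP to 200 uM Amplex Red; inhibitors, serially diluted 1:3 over 8 points with under 1% final DMSO, had been preincubated 30 min at 37 °C. IC50 from percentage drop in rate.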

[2] = target: T3, recombinant human MAO-B (monoamine oxidase-B) (Homo sapiens, UniProt P27338); experiment: Activity on recombinant human MAO-B, Amplex Red method, 1 mM benzylamine substrate; details: 1 mM benzylamine, read-out: Inhibitory Activity (IC50, nM) MAO-B
T3 construct: purchased Sigma-Aldrich
T3 sequence (P27338 1-520): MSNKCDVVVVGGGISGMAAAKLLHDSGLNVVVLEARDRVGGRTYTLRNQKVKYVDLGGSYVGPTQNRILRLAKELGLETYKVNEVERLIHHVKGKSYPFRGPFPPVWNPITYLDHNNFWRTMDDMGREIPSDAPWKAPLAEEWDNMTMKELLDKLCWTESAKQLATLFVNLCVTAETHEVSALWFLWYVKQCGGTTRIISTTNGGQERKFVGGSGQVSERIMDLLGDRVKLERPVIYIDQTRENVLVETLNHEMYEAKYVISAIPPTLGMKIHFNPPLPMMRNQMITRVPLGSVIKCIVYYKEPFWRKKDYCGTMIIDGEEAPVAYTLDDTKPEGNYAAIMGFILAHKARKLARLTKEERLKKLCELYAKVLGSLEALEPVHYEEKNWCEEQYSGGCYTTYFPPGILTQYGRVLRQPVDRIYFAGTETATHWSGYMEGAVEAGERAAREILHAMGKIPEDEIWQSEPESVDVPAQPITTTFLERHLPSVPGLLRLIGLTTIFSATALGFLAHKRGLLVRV
Summary of the method: as §1

[3] = target: T4, recombinant human DAO (diamine oxidase) (Homo sapiens, UniProt P19801); experiment: Activity on recombinant human DAO, Amplex Red method, 1 mM putrescine substrate; details: recombinant human DAO, 1 mM putrescine; * = between 10 and 100 nM, ** = between 300 and 1000 nM; read-out: Inhibitory Activity (IC50, nM) DAO
T4 construct: purchased R&D systems
T4 sequence (P19801 20-751): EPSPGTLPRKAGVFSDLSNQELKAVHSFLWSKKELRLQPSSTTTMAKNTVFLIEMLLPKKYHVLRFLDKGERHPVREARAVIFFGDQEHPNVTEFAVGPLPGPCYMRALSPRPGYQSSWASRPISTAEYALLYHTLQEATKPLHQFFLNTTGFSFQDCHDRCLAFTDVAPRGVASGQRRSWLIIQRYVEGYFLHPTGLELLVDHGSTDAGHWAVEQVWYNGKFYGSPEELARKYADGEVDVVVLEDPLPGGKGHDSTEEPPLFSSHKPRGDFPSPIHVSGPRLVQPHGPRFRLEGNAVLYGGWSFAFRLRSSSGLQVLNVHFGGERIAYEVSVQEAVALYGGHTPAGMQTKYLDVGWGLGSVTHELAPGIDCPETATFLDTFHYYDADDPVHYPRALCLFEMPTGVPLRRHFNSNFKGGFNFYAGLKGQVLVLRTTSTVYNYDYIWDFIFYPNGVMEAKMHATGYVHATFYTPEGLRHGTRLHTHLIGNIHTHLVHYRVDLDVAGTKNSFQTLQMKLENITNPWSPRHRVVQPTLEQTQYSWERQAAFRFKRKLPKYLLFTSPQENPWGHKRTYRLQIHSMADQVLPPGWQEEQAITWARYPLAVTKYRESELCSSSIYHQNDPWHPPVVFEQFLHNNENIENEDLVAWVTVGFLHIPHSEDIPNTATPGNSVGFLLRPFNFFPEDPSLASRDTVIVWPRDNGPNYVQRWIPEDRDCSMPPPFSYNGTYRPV
Summary of the method: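 Inhibition of recombinant human DAO (diamine oxidase, R&D systems) was assessed with the Amplex Red Hydrogen Peroxide Assay Kit. Hydrogen peroxide produced from 1 mM putrescine was detected through an HRP-coupled reaction that converts Amplex Red into fluorescent resorufin, read at 544 nm excitation and 590 nm emission. IC50 values came from four-parameter logistic fits in GraphPad Prism.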

Row | IC50 [1] | IC50 (recombinant human VAP-1) | IC50 [2] | IC50 [3] | SMILES
1 | > 100000 nM | 0.6 nM | > 10000 nM | 4.7 nM | Cc1cc(-c2cccc(-n3cnn(C/C(=C/F)CN)c3=O)c2)cn(C)c1=O [Example 89, 5-(3-{1-[(2E)-2-(aminomethyl)-3-fluoroprop-2-en-1-yl]-5-oxo-1,5-dihydro-4H-1,2,4-triazol-4-yl}phenyl)-1,3-dimethylpyridin-2(1H)-one hydrochloride]
2 | > 100000 nM | 1.4 nM | > 10000 nM | 19 nM | CC(C)n1cc(-c2cccc(-n3cnn(C/C(=C/F)CN)c3=O)c2)ccc1=O [Example 90, 5-(3-{1-[(2E)-2-(aminomethyl)-3-fluoroprop-2-en-1-yl]-5-oxo-1,5-dihydro-4H-1,2,4-triazol-4-yl}phenyl)-1-(propan-2-yl)pyridin-2(1H)-one hydrochloride]
3 | 9.69 nM | 1.1 nM | 1350 nM | 41 nM | NC/C(=C/F)Cn1ncn(-c2cccc(-c3ccc4c(c3)OCO4)c2)c1=O [Example 92, 2-[(2Z)-2-(aminomethyl)-3-fluoroprop-2-en-1-yl]-4-[3-(1,3-benzodioxol-5-yl)phenyl]-2,4-dihydro-3H-1,2,4-triazol-3-one hydrochloride]
4 | > 10000 nM | 0.48 nM | 221 nM | < 100 nM | NC/C(=C\F)Cn1ncn(-c2cccc(-c3ccc4c(c3)OCO4)c2)c1=O [Example 93, 2-[(2E)-2-(aminomethyl)-3-fluoroprop-2-en-1-yl]-4-[3-(1,3-benzodioxol-5-yl)phenyl]-2,4-dihydro-3H-1,2,4-triazol-3-one hydrochloride]
5 | > 100000 nM | 2 nM | 2630 nM | 120 nM | NC/C(=C/F)Cn1ncn(-c2cccc(-c3ccc4c(c3)OCCO4)c2)c1=O [Example 94, 2-[(2Z)-2-(aminomethyl)-3-fluoroprop-2-en-1-yl]-4-[3-(2,3-dihydro-1,4-benzodioxin-6-yl)phenyl]-2,4-dihydro-3H-1,2,4-triazol-3-one hydrochloride]
6 | > 100000 nM | 0.69 nM | 1460 nM | 37 nM | NC/C(=C\F)Cn1ncn(-c2cccc(-c3ccc4c(c3)OCCO4)c2)c1=O [Example 95, 2-[(2E)-2-(aminomethyl)-3-fluoroprop-2-en-1-yl]-4-[3-(2,3-dihydro-1,4-benzodioxin-6-yl)phenyl]-2,4-dihydro-3H-1,2,4-triazol-3-one hydrochloride]
7 | > 100000 nM | 0.51 nM | 390 nM | < 100 nM | NC/C(=C\F)Cn1ncn(-c2cccc(-c3ccc4nonc4c3)c2)c1=O [Example 96, 2-[(2E)-2-(aminomethyl)-3-fluoroprop-2-en-1-yl]-4-[3-(2,1,3-benzooxadiazol-5-yl)phenyl]-2,4-dihydro-3H-1,2,4-triazol-3-one hydrochloride]
8 | 22500 nM | 0.68 nM | > 10000 nM | < 30 nM | NC/C(=C\F)Cn1ncn(-c2cccc(-c3ccc4cn[nH]c4c3)c2)c1=O [Example 97, 2-[(2E)-2-(aminomethyl)-3-fluoroprop-2-en-1-yl]-4-[3-(1H-indazol-6-yl)phenyl]-2,4-dihydro-3H-1,2,4-triazol-3-one hydrochloride]
9 | 76400 nM | 4.7 nM | 9320 nM | 68 nM | NC/C(=C\F)Cn1ncn(-c2cccc(-c3cccc4[nH]ccc34)c2)c1=O [Example 98, 2-[(2E)-2-(aminomethyl)-3-fluoroprop-2-en-1-yl]-4-[3-(1H-indol-4-yl)phenyl]-2,4-dihydro-3H-1,2,4-triazol-3-one hydrochloride]
10 | > 100000 nM | 0.82 nM | 6420 nM | < 100 nM | NC/C(=C\F)Cn1ncn(-c2cccc(-c3ccc4sc(N)nc4c3)c2)c1=O [Example 99, 4-[3-(2-amino-1,3-benzothiazol-5-yl)phenyl]-2-[(2E)-2-(aminomethyl)-3-fluoroprop-2-en-1-yl]-2,4-dihydro-3H-1,2,4-triazol-3-one hydrochloride]
11 | 39300 nM | 0.92 nM | 162 nM | 27 nM | NC/C(=C\F)Cn1ncn(-c2cccc(-c3c[nH]c4ccccc34)c2)c1=O [Example 100, 2-[(2E)-2-(aminomethyl)-3-fluoroprop-2-en-1-yl]-4-[3-(1H-indol-3-yl)phenyl]-2,4-dihydro-3H-1,2,4-triazol-3-one hydrochloride]
12 | 58000 nM | 0.9 nM | 300 nM | 34 nM | NC/C(=C\F)Cn1ncn(-c2cccc(-c3cc4ccccc4s3)c2)c1=O [Example 101, 2-[(2E)-2-(aminomethyl)-3-fluoroprop-2-en-1-yl]-4-[3-(1-benzothiophen-2-yl)phenyl]-2,4-dihydro-3H-1,2,4-triazol-3-one hydrochloride]
